A word on the MIC: it is the lowest concentration that inhibits growth of the organism.

5 compounds from ChEMBL document CHEMBL3259522, “Synthesis and biological evaluation of some 2-(3,5-dimethyl-1H-pyrazol-1-yl)-1-arylethanones: antibacterial, DNA photocleavage, and anticancer activities” (2014) can be followed below.

≈ marks a conversion by molar mass, not a printed value. Calls of active or inactive are those of the source. The rule behind the calls is not given here.

Assay [1] relates to Escherichia coli. Nature of the assay: Antibacterial activity against Escherichia coli assessed as diameter of growth inhibition zone after 24 hrs by two fold serial dilution method. The assay is classed as functional.
Assay [2] deals with HCT-116. Nature of the assay: Anticancer activity against human HCT116 cells assessed as cell viability after 48 hrs by MTT assay. Type of assay: functional, cell-based.
Assay [3] relates to Staphylococcus aureus. Nature of the assay: Antibacterial activity against Staphylococcus aureus assessed as diameter of growth inhibition zone after 24 hrs by two fold serial dilution method. Type of assay: functional.
The nature of assay [4]: Induction of DNA degradation in supercoiled plasmid DNA (unknown origin) by agarose gel electrophoresis in absence of UV light.
Assay [5] has as its system Escherichia coli. In words: Antibacterial activity against Escherichia coli assessed as growth inhibition after 24 hrs by two fold serial dilution method. The assay is classed as functional.
In assay [6] the test system is Enterococcus. In words: Antibacterial activity against Enterococcus assessed as diameter of growth inhibition zone after 24 hrs by two fold serial dilution method. The assay is classed as functional.
A short description of assay [7]: Induction of DNA degradation in open circular plasmid DNA (unknown origin) by agarose gel electrophoresis in absence of UV light.
Assay [8] has as its system Staphylococcus aureus. In words: Antibacterial activity against Staphylococcus aureus assessed as growth inhibition after 24 hrs by two fold serial dilution method. The assay is classed as functional.
The subject of assay [9] is Enterococcus. In words: Antibacterial activity against Enterococcus assessed as growth inhibition after 24 hrs by two fold serial dilution method. The assay is classed as functional.
For assay [10], the system named is Pseudomonas aeruginosa. Nature of the assay: Antibacterial activity against Pseudomonas aeruginosa assessed as growth inhibition after 24 hrs by two fold serial dilution method. The assay is classed as functional.
In assay [11] the test system is Pseudomonas aeruginosa. In words: Antibacterial activity against Pseudomonas aeruginosa assessed as diameter of growth inhibition zone after 24 hrs by two fold serial dilution method. The assay is classed as functional.
The subject of assay [12] is Klebsiella pneumoniae. Nature of the assay: Antibacterial activity against Klebsiella pneumoniae assessed as diameter of growth inhibition zone after 24 hrs by two fold serial dilution method. Type of assay: functional.
Assay [13] has as its system Klebsiella pneumoniae. Nature of the assay: Antibacterial activity against Klebsiella pneumoniae assessed as growth inhibition after 24 hrs by two fold serial dilution method. The assay is classed as functional.

As to `Cc1ccc(C(=O)Cn2nc(C)cc2C)cc1`, the “diameter of the inhibition zone (DIZ)” value was found to be 11 mm in assay [1], 11 mm in assay [3] and 15 mm in assay [6]. In addition, the outcome in assay [2], in assay [4] and in [7] was inactive. Further, the minimal inhibitory concentration (MIC) in [5] is 512 µg/mL (≈ 2240 µM); in assay [8] it was 256 µg/mL (≈ 1120 µM); in assay [9] it was 64 µg/mL (≈ 280 µM).
As to `Cc1cc(C)n(CC(=O)c2cccc(Cl)c2)n1`, the “diameter of the inhibition zone (DIZ)” value in assay [1] and in assay [6] was 10 mm throughout. The outcome in assay [2], in assay [4] and in assay [7] was inactive. Besides, the MIC in [5] and in assay [9] was 512 µg/mL (≈ 2060 µM) in each case.
Regarding `CC1(C)S[C@@H]2[C@H](NC(=O)[C@H](N)c3ccccc3)C(=O)N2[C@H]1C(=O)O` [AMPICILLIN], the MIC in assay [10] was 8 µg/mL (≈ 22.9 µM); in assay [5], 8 µg/mL (≈ 22.9 µM); in assay [13], 2 µg/mL (≈ 5.72 µM); in [8], 2 µg/mL (≈ 5.72 µM); in [9] it was 2 µg/mL (≈ 5.72 µM). For the same compound, the “diameter of the inhibition zone (DIZ)” value in assay [11] amounted to 14 mm; in assay [12] it was 13 mm; in assay [1] it was 16 mm; in assay [3], 16 mm; in [6], 18 mm.
As to `Cc1cc(C)n(CC(=O)c2ccccc2F)n1`, the minimal inhibitory concentration (MIC) in assay [10], in assay [5], in assay [8] and in assay [9] was 256 µg/mL (≈ 1100 µM) each time. Besides, the “diameter of the inhibition zone (DIZ)” value in [11] is 11 mm; in [1], 11 mm; in assay [3] it was 10 mm; in [6] it was 10 mm. The result in assay [2], in assay [4] and in [7] was inactive.
Take `Cc1cc(C)n(CC(=O)c2ccc(Cl)cc2)n1`: the figures for the “diameter of the inhibition zone (DIZ)” value in assay [1], in assay [3] and in assay [6] were 14 mm, 12 mm and 12 mm, respectively. Besides, the result in assay [2], in [4] and in assay [7] was inactive. The minimal inhibitory concentration (MIC) in assay [5] was 256 µg/mL (≈ 1030 µM); in assay [8] it was 256 µg/mL (≈ 1030 µM); in assay [9], 512 µg/mL (≈ 2060 µM).
